From ChEMBL document CHEMBL1201862, “PubChem BioAssay data set” (2004)
“And” between values parts separate entries of the source, which are not always exact repeats. Equal values may be shown once.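 96-well plates; 48 h exposure; 5 concentrations. Endpoints by linear interpolation between flanking doses. Not reached: highest tested concentration assigned. GI50: concentration for 50% inhibition of growth.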 The source made the active and inactive calls. Rule as the data show it: active = GI50 up to about 1.1 µM and inactive = higher.

Experiments:
Assay in all cases: growth of human tumour cells (NCI), 48 h
SW-620 = test system: SW-620
SF-539 = test system: SF-539
OVCAR-8 = test system: OVCAR-8
SR = test system: SR
MOLT-4 = test system: MOLT-4
OVCAR-3 = test system: OVCAR-3
MCF7 = test system: MCF7
HOP-92 = test system: HOP-92
IGROV-1 = test system: IGROV-1
HCC 2998 = test system: HCC 2998
EKVX = test system: EKVX
PC-3 = test system: PC-3
SK-OV-3 = test system: SK-OV-3
SNB-75 = test system: SNB-75
NCI/ADR-RES = test system: NCI/ADR-RES
NCI-H23 = test system: NCI-H23
BT-549 = test system: BT-549
CCRF-CEM = test system: CCRF-CEM
A549 = test system: A549
HL-60 = test system: HL-60

Row | Structure (SMILES) | GI50 (SW-620) | GI50 (SF-539) | GI50 (OVCAR-8) | GI50 (SR) | GI50 (MOLT-4) | GI50 (OVCAR-3) | GI50 (MCF7) | GI50 (HOP-92) | GI50 (IGROV-1) | GI50 (HCC 2998) | GI50 (EKVX) | GI50 (PC-3) | GI50 (SK-OV-3) | GI50 (SNB-75) | GI50 (NCI/ADR-RES) | GI50 (NCI-H23) | GI50 (BT-549) | GI50 (CCRF-CEM) | GI50 (A549) | GI50 (HL-60)
1 | CC(=O)c1cc2c(s1)C(=O)c1sccc1C2=O | 0.0569 µM (active) | 0.0181 µM (active) | 0.0738 µM (active) | 0.0133 µM (active) | 0.0486 µM (active) | < 0.014 µM (active) | 0.0301 µM (active) | 0.294 µM (active) | 0.168 µM (active) | 0.218 µM (active) | 0.118 µM (active) | 0.0568 µM (active) | 1.73 µM (inactive) | 0.0204 µM (active) | 0.056 µM (active) | 0.0184 µM (active) | 0.0184 µM (active) | 0.0392 µM (active) | 0.207 µM (active) | –
2 | O=c1[nH][nH]c(=O)n1Cc1ccccc1 | > 100 µM (inactive) | > 100 µM (inactive) | > 100 µM (inactive) | > 100 µM (inactive) | > 100 µM (inactive) | > 100 µM (inactive) | > 100 µM (inactive) | – | – | > 100 µM (inactive) | > 100 µM (inactive) | > 100 µM (inactive) | > 100 µM (inactive) | > 100 µM (inactive) | > 100 µM (inactive) | > 100 µM (inactive) | > 100 µM (inactive) | > 100 µM (inactive) | > 100 µM (inactive) | > 100 µM (inactive)
3 | O=C(C(Cl)=C(Nc1ccccc1)Nc1ccccc1)C(Cl)Cl | 18.8 µM (inactive) | 24.6 µM (inactive) | 17.3 µM (inactive) | 16.5 µM (inactive) | 16 µM (inactive) | 23 µM (inactive) | 23.9 µM (inactive) | 21.8 µM (inactive) | 32.1 µM (inactive) | 19 µM (inactive) | 22.6 µM (inactive) | 36.9 µM (inactive) | 37.6 µM (inactive) | – | 40.6 µM (inactive) | 41.4 µM (inactive) | 37.2 µM (inactive) | 28.5 µM (inactive) | 38.5 µM (inactive) | 17.4 µM (inactive)
4 | CN(Cc1cnc2nc(N)nc(N)c2n1)c1ccc(C(=O)NCCCC(=O)O)cc1 | 5.7 µM (inactive) | 8.75 µM (inactive) | 7.55 µM (inactive) | 4.99 µM (inactive) | 6.53 µM (inactive) | > 93.5 µM (inactive) | 5.02 µM (inactive) | > 100 µM (inactive) | 16.1 µM (inactive) | > 100 µM (inactive) | > 29 µM (inactive) | 0.773 µM (active) | 97.9 µM (inactive) | > 62.7 µM (inactive) | > 31.4 µM (inactive) | 37.3 µM (inactive) | > 65 µM (inactive) | 17.3 µM (inactive) | 5.83 µM (inactive) | > 100 µM (inactive)
5 | COc1ccc2[nH]cc([C@@H]3C4CCC(C4)[C@H]3NCc3cccc(CN[C@H]4C5CCC(C5)[C@@H]4c4c[nH]c5ccc(OC)cc45)c3)c2c1 | 238 nM (active) and 384 nM (active) | 1 µM (active) and 1.73 µM (inactive) | 891 nM (active) and 998 nM (active) | 231 nM (active) and 250 nM (active) | 577 nM (active) and 467 nM (active) | 1.65 µM (inactive) and 1.54 µM (inactive) | 1.5 µM (inactive) and 1.01 µM (active) | 1.1 µM (active) and 1.31 µM (inactive) | 1.42 µM (inactive) and 1.58 µM (inactive) | 339 nM (active) and 256 nM (active) | 1.51 µM (inactive) and 1.52 µM (inactive) | 1.29 µM (inactive) and 1.46 µM (inactive) | – | 1.26 µM (inactive) and 1.22 µM (inactive) | 1.55 µM (inactive) and 1.68 µM (inactive) | 1.75 µM (inactive) and 1.53 µM (inactive) | 1.69 µM (inactive) and 1.62 µM (inactive) | 366 nM (active) and 352 nM (active) | 1.46 µM (inactive) and 1.61 µM (inactive) | 214 nM (active) and 191 nM (active)
6 | CC(=O)N1CCn2c1nc1cc(Cl)ccc12 | > 100 µM (inactive) | 26.4 µM (inactive) | 74.3 µM (inactive) | > 100 µM (inactive) | > 100 µM (inactive) | 95.1 µM (inactive) | > 100 µM (inactive) | 24.9 µM (inactive) | 37.6 µM (inactive) | > 100 µM (inactive) | 54.3 µM (inactive) | 47.5 µM (inactive) | 25.1 µM (inactive) | – | > 100 µM (inactive) | – | > 100 µM (inactive) | > 100 µM (inactive) | > 100 µM (inactive) | > 100 µM (inactive)
7 | Cc1nn(C)c2nc3ccc(Cl)cc3c(-c3ccccc3)c12 | > 100 µM (inactive) | > 100 µM (inactive) | > 100 µM (inactive) | > 100 µM (inactive) | > 100 µM (inactive) | > 100 µM (inactive) | > 100 µM (inactive) | > 100 µM (inactive) | – | > 100 µM (inactive) | > 100 µM (inactive) | > 100 µM (inactive) | > 100 µM (inactive) | > 100 µM (inactive) | > 100 µM (inactive) | > 100 µM (inactive) | > 100 µM (inactive) | > 100 µM (inactive) | 79.6 µM (inactive) | > 100 µM (inactive)
8 | Cc1ccc2oc(=O)c(C(=O)Nc3nc(C45CC6CC(CC(C6)C4)C5)cs3)cc2c1 | > 100 µM (inactive) | > 100 µM (inactive) | > 100 µM (inactive) | > 100 µM (inactive) | > 100 µM (inactive) | > 100 µM (inactive) | > 100 µM (inactive) | > 100 µM (inactive) | > 100 µM (inactive) | > 100 µM (inactive) | > 100 µM (inactive) | > 100 µM (inactive) | – | > 100 µM (inactive) | > 100 µM (inactive) | > 100 µM (inactive) | > 100 µM (inactive) | > 100 µM (inactive) | > 100 µM (inactive) | > 100 µM (inactive)
9 | Cc1ccccc1NC(=S)N/N=C(/c1ccccc1)c1ccccn1 | < 0.01 µM (active) | 0.384 µM (active) | 0.0279 µM (active) | < 0.0262 µM (active) | < 0.0295 µM (active) | < 0.01 µM (active) | 0.0215 µM (active) | 0.283 µM (active) | < 0.01 µM (active) | 3.22 µM (inactive) | < 0.0381 µM (active) | < 0.01 µM (active) | 0.0128 µM (active) | 0.933 µM (active) | < 0.0187 µM (active) | < 0.01 µM (active) | 2.58 µM (inactive) | < 0.01 µM (active) | 0.0428 µM (active) | < 0.0736 µM (active)
10 | Cc1nc2c(=O)n(C)c(=O)nc-2n(CCO)c1C | > 100 µM (inactive) | > 100 µM (inactive) | > 100 µM (inactive) | > 100 µM (inactive) | > 100 µM (inactive) | > 100 µM (inactive) | > 100 µM (inactive) | > 100 µM (inactive) | > 100 µM (inactive) | > 100 µM (inactive) | > 100 µM (inactive) | > 100 µM (inactive) | > 100 µM (inactive) | > 100 µM (inactive) | > 100 µM (inactive) | > 100 µM (inactive) | > 100 µM (inactive) | > 100 µM (inactive) | > 100 µM (inactive) | –
11 | CC(C)C(Sc1nc(N)nc2nc[nH]c12)C(=O)O (centres undefined) | > 100 µM (inactive) | – | > 100 µM (inactive) | > 100 µM (inactive) | – | > 100 µM (inactive) | > 100 µM (inactive) | – | > 100 µM (inactive) | > 100 µM (inactive) | > 100 µM (inactive) | > 100 µM (inactive) | > 100 µM (inactive) | > 100 µM (inactive) | > 100 µM (inactive) | > 100 µM (inactive) | > 100 µM (inactive) | > 100 µM (inactive) | > 100 µM (inactive) | > 100 µM (inactive)
12 | COc1ccc(-c2nnc3n(Cc4ccccc4)c4ccccc4n3c2=O)cc1 | > 100 µM (inactive) | 13.2 µM (inactive) | 30.9 µM (inactive) | > 100 µM (inactive) | > 100 µM (inactive) | – | 29.4 µM (inactive) | 19.4 µM (inactive) | 13.3 µM (inactive) | > 100 µM (inactive) | 29.8 µM (inactive) | 5.92 µM (inactive) | – | 11.9 µM (inactive) | 55.8 µM (inactive) | 31.3 µM (inactive) | > 100 µM (inactive) | > 100 µM (inactive) | 45 µM (inactive) | > 100 µM (inactive)
13 | CC(=O)[C@H]1[C@H](O)C[C@@]2(C)[C@@H]3CCc4cc(O)c(OC5OC(CO)C(O)C(O)C5O)cc4C3(C)C(=O)C[C@]12C (some centres undefined) | > 100 µM (inactive) | > 100 µM (inactive) | > 100 µM (inactive) | > 100 µM (inactive) | > 100 µM (inactive) | > 100 µM (inactive) | > 100 µM (inactive) | > 100 µM (inactive) | > 100 µM (inactive) | > 100 µM (inactive) | > 100 µM (inactive) | > 100 µM (inactive) | > 100 µM (inactive) | > 100 µM (inactive) | > 100 µM (inactive) | > 100 µM (inactive) | > 100 µM (inactive) | > 100 µM (inactive) | > 100 µM (inactive) | > 100 µM (inactive)
14 | COc1cccc(-c2cc(O)c3c(C)ccnc3n2)c1 | < 0.0177 µM (active) | 0.0272 µM (active) | 0.0646 µM (active) | < 0.01 µM (active) | 0.0407 µM (active) | 0.0186 µM (active) | 0.0741 µM (active) | – | 0.0493 µM (active) | 0.0352 µM (active) | 0.225 µM (active) | 0.0223 µM (active) | 0.0365 µM (active) | 0.0143 µM (active) | 0.0224 µM (active) | 0.0625 µM (active) | 21.2 µM (inactive) | 0.029 µM (active) | 0.0518 µM (active) | < 0.0114 µM (active)
